Results taken from the supplement of paper PMC11451515.

Tested on: NOMO1
Assay: cell viability relative to DMSO control; higher = less cytotoxic
Conditions: 48 h
Procedure, shortened: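 Viability was expressed as a per-plate percentage of DMSO wells, with cell-free wells as background. Leukemia cells (NOMO1 or SEM at 500 cells/well, P12-Ichikawa at 1000 cells/well) were adapted for at least four passages in each medium and seeded in 1536-well plates (5 μl). Library compounds in DMSO were pin-dosed over an 11-point threefold series from 47 μM to 0.79 nM, and CellTiter-Glo One luminescence was read after 48 h at 37°C.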

[1] = HPLM + 10% dialyzed FBS, 0.000781 µM
[2] = HPLM + 10% dialyzed FBS, 0.00234 µM
[3] = HPLM + 10% dialyzed FBS, 0.00702 µM
[4] = HPLM + 10% dialyzed FBS, 0.0211 µM
[5] = HPLM + 10% dialyzed FBS, 0.0632 µM
[6] = HPLM + 10% dialyzed FBS, 0.19 µM
[7] = HPLM + 10% dialyzed FBS, 0.569 µM
[8] = HPLM + 10% dialyzed FBS, 1.71 µM
[9] = HPLM + 10% dialyzed FBS, 5.12 µM
[10] = HPLM + 10% dialyzed FBS, 15.4 µM
[11] = HPLM + 10% dialyzed FBS, 46.1 µM
[12] = RPMI 5 mM glucose + 10% FBS, 0.000781 µM
[13] = RPMI 5 mM glucose + 10% FBS, 0.00234 µM
[14] = RPMI 5 mM glucose + 10% FBS, 0.00702 µM
[15] = RPMI 5 mM glucose + 10% FBS, 0.0211 µM
[16] = RPMI 5 mM glucose + 10% FBS, 0.0632 µM
[17] = RPMI 5 mM glucose + 10% FBS, 0.19 µM
[18] = RPMI 5 mM glucose + 10% FBS, 0.569 µM
[19] = RPMI 5 mM glucose + 10% FBS, 1.71 µM
[20] = RPMI 5 mM glucose + 10% FBS, 5.12 µM
[21] = RPMI 5 mM glucose + 10% FBS, 15.4 µM
[22] = RPMI 5 mM glucose + 10% FBS, 46.1 µM
[23] = RPMI 5 mM glucose + 10% dialyzed FBS, 0.000781 µM
[24] = RPMI 5 mM glucose + 10% dialyzed FBS, 0.00234 µM
[25] = RPMI 5 mM glucose + 10% dialyzed FBS, 0.00702 µM
[26] = RPMI 5 mM glucose + 10% dialyzed FBS, 0.0211 µM
[27] = RPMI 5 mM glucose + 10% dialyzed FBS, 0.0632 µM
[28] = RPMI 5 mM glucose + 10% dialyzed FBS, 0.19 µM
[29] = RPMI 5 mM glucose + 10% dialyzed FBS, 0.569 µM
[30] = RPMI 5 mM glucose + 10% dialyzed FBS, 1.71 µM
[31] = RPMI 5 mM glucose + 10% dialyzed FBS, 5.12 µM
[32] = RPMI 5 mM glucose + 10% dialyzed FBS, 15.4 µM
[33] = RPMI 5 mM glucose + 10% dialyzed FBS, 46.1 µM

SMILES | cell viability [1] | cell viability [2] | cell viability [3] | cell viability [4] | cell viability [5] | cell viability [6] | cell viability [7] | cell viability [8] | cell viability [9] | cell viability [10] | cell viability [11] | cell viability [12] | cell viability [13] | cell viability [14] | cell viability [15] | cell viability [16] | cell viability [17] | cell viability [18] | cell viability [19] | cell viability [20] | cell viability [21] | cell viability [22] | cell viability [23] | cell viability [24] | cell viability [25] | cell viability [26] | cell viability [27] | cell viability [28] | cell viability [29] | cell viability [30] | cell viability [31] | cell viability [32] | cell viability [33]
CN[S+](=O)([O-])Cc1ccc2[nH]cc(CCN(C)C)c2c1 | 116% | 124% | 118% | 124% | 130% | 130% | 148% | 136% | 128% | 135% | 122% | 106% | 124% | 110% | 118% | 110% | 120% | 117% | 109% | 129% | 139% | 111% | 113% | 118% | 114% | 122% | 118% | 123% | 122% | 120% | 118% | 129% | 129%
Oc1ccc2c3c1O[C@H]1c4[nH]c5c(c4C[C@@]4(O)[C@@H](C2)N(CC2CC2)CC[C@]314)C[C@@]1(O)[C@H]2Cc3ccc(O)c4c3[C@@]1(CCN2CC1CC1)[C@H]5O4 | 92.7% | 104% | 114% | 116% | 116% | 136% | 108% | 115% | 129% | 132% | 131% | 99.8% | 122% | 110% | 116% | 128% | 118% | 125% | 120% | 116% | 123% | 134% | 98% | 127% | 112% | 122% | 123% | 126% | 122% | 110% | 108% | 124% | 119%
CC(=O)O.Cc1c(-c2ccc(O)cc2)n(Cc2ccc(OCCN3CCCCCC3)cc2)c2ccc(O)cc12 | 95.5% | 106% | 92.7% | 95.6% | 89.6% | 102% | 111% | 103% | 106% | 94.1% | 92.5% | 86.3% | 103% | 92.3% | 92.7% | 88.5% | 105% | 92.3% | 87.5% | 96.5% | 93.9% | 88.6% | 97.5% | 97.9% | 91.4% | 96% | 99.2% | 107% | 103% | 98.1% | 102% | 101% | 86.7%
CC(=O)O[C@H]1C(=O)[C@]2(C)[C@@H](O)C[C@H]3OC[C@@]3(OC(C)=O)C2[C@H](OC(=O)C4=CC=CC=C4)[C@]5(O)C[C@H](OC(=O)[C@H](O)[C@@H](NC(=O)C6=CC=CC=C6)C7=CC=CC=C7)\C(=C1/C5(C)C)C (stereo partly specified) | 74.6% | 34.7% | 39.5% | 41.3% | 39.6% | 31.7% | 33.1% | 36.6% | 35.5% | 29.1% | 33.1% | 124% | 27.4% | 23% | 25.4% | 25.4% | 22.5% | 23.2% | 23.9% | 23.1% | 23.2% | 19.6% | 106% | 32.5% | 25.2% | 31.5% | 24.8% | 26% | 29.7% | 31.4% | 29% | 27.1% | 20.3%
C/C=C1\NC(=O)[C@H]2CSSCC/C=C\[C@H](CC(=O)N[C@H](C(C)C)C(=O)N2)OC(=O)[C@H](C(C)C)NC1=O | 102% | 119% | 119% | 105% | 17.7% | 4.68% | 4.81% | 4.43% | 5.27% | 4.81% | 4.24% | 99.6% | 97.5% | 104% | 94.9% | 18.1% | 4.23% | 3.46% | 3.14% | 2.93% | 2.29% | 2.53% | 93.7% | 90.3% | 103% | 108% | 30.1% | 4.52% | 4.41% | 3.52% | 3.86% | 1.77% | 3.47%
OC(=O)C1=CC=C(NC2=NC3=C(C\N=C(/C4=CC(=CC=C34)Cl)C5=C(F)C=CC=C5F)C=N2)C=C1 | 87.2% | 96.6% | 104% | 122% | 97.9% | 103% | 87.6% | 45.2% | 44% | 59.1% | 72% | 81.9% | 96.8% | 80% | 91.3% | 90.4% | 79.9% | 82.3% | 32.8% | 37.8% | 56.4% | 56.4% | 93.2% | 95.7% | 89.2% | 94.1% | 89.8% | 97.8% | 77.3% | 35% | 38.8% | 55.9% | 61.4%
Cc1cc(OCCCc2c(C(=O)O)n(Cc3cccnc3)c3c(-c4c(COc5ccc(N6CCN([S+](C)(=O)[O-])CC6)cc5)nn(C)c4C)cccc23)cc(C)c1Cl | 92.9% | 112% | 98.3% | 107% | 100% | 104% | 100% | 92.7% | 92.1% | 87% | 71.8% | 86% | 87.7% | 94.8% | 89.8% | 95.6% | 90.8% | 87.7% | 91.5% | 82.4% | 78.5% | 74.9% | 92.4% | 90.5% | 98.1% | 98.4% | 95.8% | 86.1% | 87.7% | 98.2% | 96.7% | 91.2% | 78.6%
COC1=CC=CC=C1C2=CC=CC(=C2)C/3=C(O)/C4=CC(=C(Cl)C=C4NC3=O)C#N | 110% | 120% | 109% | 109% | 129% | 114% | 107% | 103% | 31.2% | 5.52% | 1.77% | 89.6% | 111% | 113% | 98.5% | 107% | 108% | 113% | 110% | 82.4% | 13.4% | 2.44% | 92.2% | 103% | 95.4% | 93.6% | 96.4% | 88.3% | 104% | 108% | 84.5% | 21% | 4.29%
NC(=O)c1cnc(N[C@@H]2CCCC[C@@H]2N)nc1Nc1cccc(-n2nccn2)c1 | 118% | 120% | 123% | 153% | 140% | 141% | 154% | 116% | 138% | 110% | 75% | – | – | – | – | – | – | – | – | – | – | – | – | – | – | – | – | – | – | – | – | – | –
CC(=O)N(C)c1cccc(-c2ccnc3c(C(=O)c4cccs4)cnn23)c1 | 110% | 107% | 110% | 77.7% | 99.4% | 94.8% | 104% | 119% | 97.5% | 113% | 95.2% | 95.6% | 104% | 100% | 92.6% | 99.5% | 104% | 98% | 100% | 102% | 94.5% | 90.1% | 92.8% | 103% | 87.2% | 73.7% | 97.9% | 89% | 99.4% | 87.2% | 95.6% | 99.6% | 82.2%
COC1=CC2=NC=CC(=C2C=C1)OC3=CN=C(NC(=O)C/4=C(C)/N(CC(C)(C)O)N(C4=O)C5=CC=CC=C5)C=C3 | 82% | 87.4% | 86.3% | 101% | 103% | 107% | 98.9% | 96.4% | 69.1% | 88% | 62.1% | 78.8% | 92% | 88.6% | 95% | 91.7% | 91.7% | 91.2% | 98.7% | 85.6% | 93.4% | 81.8% | 73.7% | 86.8% | 91.6% | 88.2% | 97.7% | 83.1% | 96.6% | 84.8% | 77.2% | 94.1% | 64%
C=CC(=O)Nc1cccc(Oc2nc(Nc3ccc(N4CCN(C)CC4)cc3)ncc2Cl)c1 | 93.3% | 110% | 119% | 125% | 131% | 112% | 106% | 97.2% | 88.3% | 84.9% | 135% | – | – | – | – | – | – | – | – | – | – | – | – | – | – | – | – | – | – | – | – | – | –
COc1ccc(C[C@@H](C)[C@@H](C)Cc2ccc(OC)c(OC)c2)cc1OC | 92.1% | 94.8% | 107% | 112% | 93.5% | 75.5% | 68% | 53.7% | 16.6% | 17.8% | 13.8% | 87.3% | 93.7% | 88.6% | 100% | 86.3% | 85.1% | 74.9% | 71.6% | 8.17% | 6.56% | 5.76% | 84% | 80.2% | 97.4% | 97.6% | 95.3% | 89.6% | 82.4% | 69.2% | 21.4% | 11.1% | 7.7%
OC1=CC=C(C=C1)\C2=C\OC3=C(C=CC(=C3)O)C2=O | 97.3% | 92.8% | 102% | 119% | 118% | 99.6% | 105% | 106% | 104% | 93.9% | 99.6% | 93.1% | 91.6% | 89% | 93.4% | 119% | 96.2% | 92.4% | 86.8% | 103% | 100% | 94.2% | 98.8% | 108% | 84.2% | 107% | 112% | 96.1% | 105% | 96.6% | 102% | 89% | 94.5%
CCCCn1c(=O)n(Cc2ccccc2F)c(=O)c2nc(Cc3ccc(NC(C)=O)cc3)[nH]c21 | 97.6% | 155% | 75.7% | 24.9% | 52.4% | 77.6% | 86% | 76.5% | 78.6% | 68.6% | 71.2% | 82.3% | 82.9% | 78.1% | 79.5% | 82.5% | 77.8% | 83.9% | 82.4% | 79.5% | 86.7% | 76.9% | 107% | 108% | 106% | 104% | 125% | 59.5% | 57.7% | 89.6% | 69.4% | 63.8% | 68.8%
